Laboratory results taken from paper PMC11785709, “Angelica gigas Nakai (Korean Dang-gui) Root Alcoholic Extracts in Health Promotion and Disease Therapy – active Phytochemicals and In Vivo Molecular Targets” (Pharmaceutical Research, 2025).
Values joined by “and” are separate entries in the source; they are usually repeats but may differ in a detail not shown here. Equal entries are not always repeated.

Legend:
Assay in all cases: Reaction Biology kinase activity inhibition
Format in all cases: biochemical
Settings in all cases: initial screening
STK32B/YANK2 = target: T1, STK32B/YANK2 (Homo sapiens, UniProt Q9NY57)
T1 construct: purchased Reaction Biology
Text: (§1) The second screening was the Reaction Biology® (Malvern, PA) kinase activity inhibition tests, which screened for more than 600 protein kinases and lipid kinases, using miniaturized radioisotope-based assay platform with γ-^33P-ATP, followed by confirmation with IC50 kinase profiling service with 5 concentrations of test compound (i.e., DOH and DA) with curve fitting.

MKK7 (MAPK9) = target: T2, MKK7 (MAPK9) (Homo sapiens, UniProt O14733)
T2 construct: purchased Reaction Biology
T2 sequence (O14733 2-419 limits assumed): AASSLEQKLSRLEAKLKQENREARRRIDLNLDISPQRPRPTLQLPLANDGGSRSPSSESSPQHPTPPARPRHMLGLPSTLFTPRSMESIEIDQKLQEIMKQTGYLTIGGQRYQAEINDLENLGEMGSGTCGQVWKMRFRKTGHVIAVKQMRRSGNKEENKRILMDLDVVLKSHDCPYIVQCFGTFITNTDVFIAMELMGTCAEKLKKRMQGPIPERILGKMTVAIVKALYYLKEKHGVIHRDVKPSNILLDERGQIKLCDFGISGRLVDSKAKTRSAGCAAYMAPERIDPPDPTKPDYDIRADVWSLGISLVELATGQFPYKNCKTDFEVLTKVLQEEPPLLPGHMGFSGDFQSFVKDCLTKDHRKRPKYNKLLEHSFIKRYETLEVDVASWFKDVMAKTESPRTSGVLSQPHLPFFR
Text: as §1

LRRK2 (G2019S) = target: T3, LRRK2 (G2019S) (Homo sapiens, UniProt Q5S007, G2019S)
T3 construct: purchased Reaction Biology
T3 sequence (Q5S007 whole entry G2019S): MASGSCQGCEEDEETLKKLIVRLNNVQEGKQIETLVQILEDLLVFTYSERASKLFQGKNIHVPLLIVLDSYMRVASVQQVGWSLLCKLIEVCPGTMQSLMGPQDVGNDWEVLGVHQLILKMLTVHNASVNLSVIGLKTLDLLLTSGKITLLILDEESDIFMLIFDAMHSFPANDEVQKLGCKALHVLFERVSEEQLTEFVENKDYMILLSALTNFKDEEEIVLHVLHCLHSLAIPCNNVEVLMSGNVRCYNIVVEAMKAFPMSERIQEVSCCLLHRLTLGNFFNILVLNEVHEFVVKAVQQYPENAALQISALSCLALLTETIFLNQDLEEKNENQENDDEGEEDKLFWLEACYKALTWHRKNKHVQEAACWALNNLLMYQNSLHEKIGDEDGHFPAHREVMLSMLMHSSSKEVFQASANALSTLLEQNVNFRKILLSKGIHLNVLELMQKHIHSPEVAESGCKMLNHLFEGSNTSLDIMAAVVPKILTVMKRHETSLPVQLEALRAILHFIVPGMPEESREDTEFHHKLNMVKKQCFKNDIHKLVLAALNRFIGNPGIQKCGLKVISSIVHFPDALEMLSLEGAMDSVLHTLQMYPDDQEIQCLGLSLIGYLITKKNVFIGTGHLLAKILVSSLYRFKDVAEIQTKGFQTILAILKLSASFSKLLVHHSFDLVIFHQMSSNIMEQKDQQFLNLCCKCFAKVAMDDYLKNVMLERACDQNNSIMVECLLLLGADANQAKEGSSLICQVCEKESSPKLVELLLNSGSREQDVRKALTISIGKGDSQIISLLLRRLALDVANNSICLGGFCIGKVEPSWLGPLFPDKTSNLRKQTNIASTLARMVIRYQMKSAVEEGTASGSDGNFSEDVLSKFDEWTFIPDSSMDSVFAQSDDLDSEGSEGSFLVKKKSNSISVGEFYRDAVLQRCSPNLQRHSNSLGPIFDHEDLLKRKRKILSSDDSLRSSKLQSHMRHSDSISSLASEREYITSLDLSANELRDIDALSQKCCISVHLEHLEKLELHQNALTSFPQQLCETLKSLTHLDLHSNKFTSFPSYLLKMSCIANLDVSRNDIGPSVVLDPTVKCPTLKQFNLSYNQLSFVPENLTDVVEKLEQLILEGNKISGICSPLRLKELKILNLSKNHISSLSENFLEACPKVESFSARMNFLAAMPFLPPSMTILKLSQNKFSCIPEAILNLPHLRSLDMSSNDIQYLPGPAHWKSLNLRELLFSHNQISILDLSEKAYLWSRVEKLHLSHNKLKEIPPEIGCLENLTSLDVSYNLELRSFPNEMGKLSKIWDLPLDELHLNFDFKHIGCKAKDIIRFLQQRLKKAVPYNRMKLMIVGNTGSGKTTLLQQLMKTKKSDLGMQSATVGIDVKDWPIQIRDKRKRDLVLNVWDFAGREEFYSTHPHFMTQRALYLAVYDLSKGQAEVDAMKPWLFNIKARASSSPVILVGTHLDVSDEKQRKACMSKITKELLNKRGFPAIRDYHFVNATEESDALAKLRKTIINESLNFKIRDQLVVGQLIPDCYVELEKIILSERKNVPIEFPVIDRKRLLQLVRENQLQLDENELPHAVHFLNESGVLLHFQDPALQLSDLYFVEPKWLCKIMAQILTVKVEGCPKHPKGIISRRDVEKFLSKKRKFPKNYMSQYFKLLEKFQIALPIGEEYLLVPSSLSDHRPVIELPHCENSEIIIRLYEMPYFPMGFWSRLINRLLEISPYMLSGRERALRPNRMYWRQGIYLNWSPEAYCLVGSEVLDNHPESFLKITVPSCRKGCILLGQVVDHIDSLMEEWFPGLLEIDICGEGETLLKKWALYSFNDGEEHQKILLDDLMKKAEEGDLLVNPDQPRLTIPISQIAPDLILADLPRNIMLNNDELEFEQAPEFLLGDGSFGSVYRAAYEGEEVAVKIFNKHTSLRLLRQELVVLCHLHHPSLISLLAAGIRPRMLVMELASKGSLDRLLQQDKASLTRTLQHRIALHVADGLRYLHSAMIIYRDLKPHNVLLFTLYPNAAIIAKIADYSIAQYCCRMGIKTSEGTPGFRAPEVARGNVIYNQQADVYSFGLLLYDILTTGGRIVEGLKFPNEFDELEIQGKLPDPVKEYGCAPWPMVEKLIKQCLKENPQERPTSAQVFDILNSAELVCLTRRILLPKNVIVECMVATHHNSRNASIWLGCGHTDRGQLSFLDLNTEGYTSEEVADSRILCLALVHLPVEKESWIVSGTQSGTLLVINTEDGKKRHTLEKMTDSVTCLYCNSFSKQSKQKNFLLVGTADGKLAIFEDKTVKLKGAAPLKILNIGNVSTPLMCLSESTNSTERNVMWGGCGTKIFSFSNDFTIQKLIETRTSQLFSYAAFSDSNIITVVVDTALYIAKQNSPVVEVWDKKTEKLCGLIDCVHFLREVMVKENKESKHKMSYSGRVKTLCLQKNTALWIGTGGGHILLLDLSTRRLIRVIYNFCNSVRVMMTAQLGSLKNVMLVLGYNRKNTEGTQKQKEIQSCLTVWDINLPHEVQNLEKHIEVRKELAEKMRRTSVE
Text: as §1

c-Kit (D816H) = target: T4, c-Kit (D816H) (Homo sapiens, UniProt P10721, D816H)
T4 construct: purchased Reaction Biology
Text: as §1

PIM1 = target: T5, PIM1 (Homo sapiens, UniProt P11309)
T5 construct: purchased Reaction Biology
T5 sequence (P11309 whole entry): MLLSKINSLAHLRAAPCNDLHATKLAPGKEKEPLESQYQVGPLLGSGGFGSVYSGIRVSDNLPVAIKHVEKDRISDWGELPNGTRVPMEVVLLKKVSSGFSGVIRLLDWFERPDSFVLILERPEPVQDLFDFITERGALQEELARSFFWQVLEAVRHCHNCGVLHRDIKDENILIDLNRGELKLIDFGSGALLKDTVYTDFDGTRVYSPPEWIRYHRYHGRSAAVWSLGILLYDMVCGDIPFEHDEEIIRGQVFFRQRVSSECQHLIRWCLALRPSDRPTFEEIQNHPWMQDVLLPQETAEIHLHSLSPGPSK
Text: as §1

c-MET (Y1235D) = target: T6, c-MET (Y1235D) (Homo sapiens, UniProt P08581, Y1235D)
T6 construct: purchased Reaction Biology
Text: as §1

MELK = target: T7, MELK (Homo sapiens, UniProt Q14680)
T7 construct: purchased Reaction Biology
T7 sequence (Q14680 whole entry): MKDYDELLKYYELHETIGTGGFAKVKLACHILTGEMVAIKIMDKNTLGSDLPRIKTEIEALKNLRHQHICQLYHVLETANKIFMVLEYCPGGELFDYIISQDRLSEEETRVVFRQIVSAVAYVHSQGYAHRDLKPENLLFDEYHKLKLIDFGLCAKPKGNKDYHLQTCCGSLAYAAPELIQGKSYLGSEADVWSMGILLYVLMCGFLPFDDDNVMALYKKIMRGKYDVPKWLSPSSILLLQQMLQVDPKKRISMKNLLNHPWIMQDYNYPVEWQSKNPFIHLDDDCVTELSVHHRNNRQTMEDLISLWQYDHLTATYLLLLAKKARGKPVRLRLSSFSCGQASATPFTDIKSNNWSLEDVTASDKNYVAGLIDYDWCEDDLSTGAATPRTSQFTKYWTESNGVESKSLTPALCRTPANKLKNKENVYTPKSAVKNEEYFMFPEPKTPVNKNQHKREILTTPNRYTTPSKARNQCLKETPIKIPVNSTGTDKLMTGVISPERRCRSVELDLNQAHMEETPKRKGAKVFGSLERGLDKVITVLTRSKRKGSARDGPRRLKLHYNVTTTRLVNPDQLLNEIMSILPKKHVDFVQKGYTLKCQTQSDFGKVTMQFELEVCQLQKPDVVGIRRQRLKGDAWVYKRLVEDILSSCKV
Text: as §1

ALK-TFG = system: ALK-TFG
Text: as §1

JNK2 = target: T8, JNK2 (Homo sapiens, UniProt P45984)
T8 construct: purchased Reaction Biology
T8 sequence (P45984 whole entry): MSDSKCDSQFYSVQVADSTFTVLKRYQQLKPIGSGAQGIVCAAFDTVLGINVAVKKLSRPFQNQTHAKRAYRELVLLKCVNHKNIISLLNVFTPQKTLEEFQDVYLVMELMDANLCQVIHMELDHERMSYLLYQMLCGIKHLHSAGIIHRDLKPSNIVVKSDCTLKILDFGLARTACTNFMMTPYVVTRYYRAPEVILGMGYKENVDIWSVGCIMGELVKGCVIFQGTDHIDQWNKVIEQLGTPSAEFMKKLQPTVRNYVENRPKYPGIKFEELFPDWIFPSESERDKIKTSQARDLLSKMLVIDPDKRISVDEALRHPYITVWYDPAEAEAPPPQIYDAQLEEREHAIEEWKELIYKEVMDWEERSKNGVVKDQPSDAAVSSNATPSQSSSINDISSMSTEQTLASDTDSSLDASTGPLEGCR
Text: as §1

BRSK1 = target: T9, BRSK1 (Homo sapiens, UniProt Q8TDC3)
T9 construct: purchased Reaction Biology
T9 sequence (Q8TDC3 1-778): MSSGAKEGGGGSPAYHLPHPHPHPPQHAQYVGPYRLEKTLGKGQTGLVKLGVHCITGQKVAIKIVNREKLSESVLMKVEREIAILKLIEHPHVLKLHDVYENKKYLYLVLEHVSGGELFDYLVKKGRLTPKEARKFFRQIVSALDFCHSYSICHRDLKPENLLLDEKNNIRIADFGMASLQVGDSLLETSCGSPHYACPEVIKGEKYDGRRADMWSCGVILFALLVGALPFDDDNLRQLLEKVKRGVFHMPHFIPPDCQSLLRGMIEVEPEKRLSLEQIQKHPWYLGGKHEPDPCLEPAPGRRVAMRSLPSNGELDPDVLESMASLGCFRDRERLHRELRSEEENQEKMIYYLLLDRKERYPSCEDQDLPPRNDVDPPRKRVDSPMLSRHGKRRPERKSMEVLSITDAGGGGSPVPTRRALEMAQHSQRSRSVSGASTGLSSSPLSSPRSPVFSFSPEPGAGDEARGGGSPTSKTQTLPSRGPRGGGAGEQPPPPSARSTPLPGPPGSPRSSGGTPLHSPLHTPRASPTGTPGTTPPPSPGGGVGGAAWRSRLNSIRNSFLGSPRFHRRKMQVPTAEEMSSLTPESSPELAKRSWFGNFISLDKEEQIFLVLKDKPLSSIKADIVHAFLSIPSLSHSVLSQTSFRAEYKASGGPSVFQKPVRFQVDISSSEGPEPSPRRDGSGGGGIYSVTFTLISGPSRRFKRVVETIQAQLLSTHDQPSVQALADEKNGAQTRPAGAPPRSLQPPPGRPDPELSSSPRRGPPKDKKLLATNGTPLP
Text: as §1

IRAK1 = target: T10, IRAK1 (Homo sapiens, UniProt P51617)
T10 construct: purchased Reaction Biology
T10 sequence (P51617 whole entry): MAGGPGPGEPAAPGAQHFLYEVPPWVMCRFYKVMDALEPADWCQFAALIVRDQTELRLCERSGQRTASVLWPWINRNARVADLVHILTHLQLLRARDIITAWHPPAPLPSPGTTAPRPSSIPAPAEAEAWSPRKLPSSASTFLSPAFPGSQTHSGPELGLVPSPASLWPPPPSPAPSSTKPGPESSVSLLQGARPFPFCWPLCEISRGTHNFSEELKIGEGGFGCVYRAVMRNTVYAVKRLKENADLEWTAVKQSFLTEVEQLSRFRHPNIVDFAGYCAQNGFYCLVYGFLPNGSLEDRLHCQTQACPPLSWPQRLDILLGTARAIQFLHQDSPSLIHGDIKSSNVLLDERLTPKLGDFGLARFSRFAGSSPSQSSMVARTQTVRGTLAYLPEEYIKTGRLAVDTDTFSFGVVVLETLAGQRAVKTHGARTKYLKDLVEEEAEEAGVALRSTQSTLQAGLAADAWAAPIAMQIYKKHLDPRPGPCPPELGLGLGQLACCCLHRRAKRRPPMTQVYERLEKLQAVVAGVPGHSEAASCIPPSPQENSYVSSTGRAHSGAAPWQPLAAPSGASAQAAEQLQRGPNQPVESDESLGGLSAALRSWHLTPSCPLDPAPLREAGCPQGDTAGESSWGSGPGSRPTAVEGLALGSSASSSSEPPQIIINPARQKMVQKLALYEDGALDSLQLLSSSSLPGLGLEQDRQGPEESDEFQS
Text: as §1

PKCzeta = target: T11, PKCzeta (Homo sapiens, UniProt Q05513)
T11 construct: purchased Reaction Biology
Text: as §1

CK2a = target: T12, CK2a (Homo sapiens, UniProt P68400)
T12 construct: purchased Reaction Biology
T12 sequence (P68400 whole entry): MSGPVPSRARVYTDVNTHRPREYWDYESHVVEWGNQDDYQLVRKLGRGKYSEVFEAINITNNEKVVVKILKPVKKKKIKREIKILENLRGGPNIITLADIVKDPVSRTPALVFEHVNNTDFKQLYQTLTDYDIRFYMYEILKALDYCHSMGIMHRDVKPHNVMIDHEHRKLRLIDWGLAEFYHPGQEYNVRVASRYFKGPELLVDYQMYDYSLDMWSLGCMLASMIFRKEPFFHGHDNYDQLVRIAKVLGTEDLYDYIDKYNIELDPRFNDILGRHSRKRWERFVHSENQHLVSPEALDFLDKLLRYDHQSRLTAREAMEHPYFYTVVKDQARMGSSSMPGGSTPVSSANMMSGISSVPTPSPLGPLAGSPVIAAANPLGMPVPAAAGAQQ
Text: as §1

[1] = DOH (50 µM), Data 1 and Data 2, read-out: % Enzyme Activity (relative to DMSO controls)

Which inhibition at 50 µM (STK32B/YANK2; DOH 50 µM) does the source give for `CC1(C)Oc2cc3oc(=O)ccc3cc2C[C@@H]1O` [DOH, decursinol] here?
Its inhibition at 50 µM is 31.1%.

And the “% Enzyme Activity (relative to DMSO controls)” value (STK32B/YANK2; DOH (50 µM), Data 1 and Data 2)?
The value was 67.4%.

And the remaining activity at 50 µM (STK32B/YANK2; [1])?
Its remaining activity at 50 µM is 70.3%.

What about the inhibition at 50 µM (MKK7 (MAPK9); DOH 50 µM) of the same compound?
The inhibition at 50 µM was 36.5%.

And the “% Enzyme Activity (relative to DMSO controls)” value (MKK7 (MAPK9); DOH (50 µM), Data 1 and Data 2)?
Its value is 61.2%.

What about the remaining activity at 50 µM (MKK7 (MAPK9); [1]) of the same compound?
The remaining activity at 50 µM was 65.9%.

And the inhibition at 50 µM (LRRK2 (G2019S); DOH 50 µM)?
Its inhibition at 50 µM is 26.8%.

What about the “% Enzyme Activity (relative to DMSO controls)” value (LRRK2 (G2019S); DOH (50 µM), Data 1 and Data 2) of the same compound?
The value was 73.0%.

What about the remaining activity at 50 µM (LRRK2 (G2019S); [1]) of the same compound?
The remaining activity at 50 µM was 73.4%.

And the inhibition at 50 µM (c-Kit (D816H); DOH 50 µM)?
The inhibition at 50 µM was 25.5%.

And the “% Enzyme Activity (relative to DMSO controls)” value (c-Kit (D816H); DOH (50 µM), Data 1 and Data 2)?
Its value is 66.8%.

What about the remaining activity at 50 µM (c-Kit (D816H); [1]) of the same compound?
Its remaining activity at 50 µM is 82.2%.

And the inhibition at 50 µM (PIM1; DOH 50 µM)?
Its inhibition at 50 µM is 38.5%.

What about the “% Enzyme Activity (relative to DMSO controls)” value (PIM1; DOH (50 µM), Data 1 and Data 2) of the same compound?
Its value is 60.3%.

And the remaining activity at 50 µM (PIM1; [1])?
Its remaining activity at 50 µM is 62.7%.

And the inhibition at 50 µM (c-MET (Y1235D); DOH 50 µM)?
The inhibition at 50 µM was 30.7%.

What about the “% Enzyme Activity (relative to DMSO controls)” value (c-MET (Y1235D); DOH (50 µM), Data 1 and Data 2) of the same compound?
The value was 69.0%.

And the remaining activity at 50 µM (c-MET (Y1235D); [1])?
Its remaining activity at 50 µM is 69.5%.

What about the inhibition at 50 µM (MELK; DOH 50 µM) of the same compound?
The inhibition at 50 µM was 35.2%.

And the “% Enzyme Activity (relative to DMSO controls)” value (MELK; DOH (50 µM), Data 1 and Data 2)?
The value was 64.6%.

What about the remaining activity at 50 µM (MELK; [1]) of the same compound?
The remaining activity at 50 µM was 65%.

And the “DOH % Inhibition” value (ALK-TFG; DOH 50 µM)?
Its value is 27.9%.

What about the “% Enzyme Activity (relative to DMSO controls)” value (ALK-TFG; DOH (50 µM), Data 1 and Data 2) of the same compound?
Its value is 75.7% and 68.5%.

What about the inhibition at 50 µM (JNK2; DOH 50 µM) of the same compound?
The inhibition at 50 µM was 29%.

And the “% Enzyme Activity (relative to DMSO controls)” value (JNK2; DOH (50 µM), Data 1 and Data 2)?
The value was 70.1%.

And the remaining activity at 50 µM (JNK2; [1])?
Its remaining activity at 50 µM is 72%.

What about the inhibition at 50 µM (BRSK1; DOH 50 µM) of the same compound?
The inhibition at 50 µM was 29.7%.

And the “% Enzyme Activity (relative to DMSO controls)” value (BRSK1; DOH (50 µM), Data 1 and Data 2)?
The value was 69.5%.

And the remaining activity at 50 µM (BRSK1; [1])?
The remaining activity at 50 µM was 71.1%.

And the inhibition at 50 µM (IRAK1; DOH 50 µM)?
Its inhibition at 50 µM is 38.5%.

And the “% Enzyme Activity (relative to DMSO controls)” value (IRAK1; DOH (50 µM), Data 1 and Data 2)?
The value was 58.4%.

And the remaining activity at 50 µM (IRAK1; [1])?
Its remaining activity at 50 µM is 64.5%.

What about the inhibition at 50 µM (PKCzeta; DOH 50 µM) of the same compound?
The inhibition at 50 µM was 27.1%.

What about the remaining activity at 50 µM (PKCzeta; [1]) of the same compound?
Its remaining activity at 50 µM is 72.9%.

And the inhibition at 50 µM (CK2a; DOH 50 µM)?
Its inhibition at 50 µM is 33%.

And the “% Enzyme Activity (relative to DMSO controls)” value (CK2a; DOH (50 µM), Data 1 and Data 2)?
The value was 66.2%.

And the remaining activity at 50 µM (CK2a; [1])?
Its remaining activity at 50 µM is 67.8%.
